# Entries after “also recorded” stand apart in the source; their conditions may differ. Where two headings read alike, the source gives them in different places.
# Columns and labels:
# [1] = tested on: human pancreatic tumor cells; assay: Cell proliferation, [3H]thymidine incorporation, human pancreatic tumor cells; assay type: cell-based; conditions: 6.5 μM, 18 h
# [2] = tested on: SKMEL 28-V+ cells (human melanoma); assay: Melanoma model SKMEL-V+ in SCID mice (combination study); assay type: in vivo; conditions: QC-56 60 mg/kg/ip; Dacarbazine 55 mg/kg
# Method: SKMEL 28-V+ cells (human melanoma). These cells were originally from the ATCC and then engineered to overexpress VEGF. […] The cells were tested to be free of mycoplasma.
# Control groups received the vehicle alone.
# [3] = tested on: SKMEL-V+ tumors (blood vessels, CD31 positive cells); assay: CD31 / H&E staining, microvessel density of SKMEL-V+ tumors; assay type: in vivo, mouse; conditions: SKMEL-V+ tumors from treated mice; hydrochloride
# Method: SKMEL-V (human melanoma cells). SKMEL-V cells were derived from SKMEL-24 cells (ATCC) by overexpression of mouse VEGF. […] Tumors were either snap frozen in liquid nitrogen or fixed in 10% buffered formalin and embedded in paraffin. […] BD PharMingen, San Diego, Calif.). […] Sections were rehydrated in PBS and then blocked with 5% normal goat serum for 1 h. The sections were then incubated overnight at 4° C. with CD31 antibody diluted 1:25 in 3% BSA-PBS. […] Paraffin-embedded material was used for Harris' hematoxylin. Microvessel density was quantified using a method described by Weidner et al ([…], and Folkman […]. Med, 1991; 324:1-8). Briefly, randomly vascularized areas were selected (hot spots) under 40× field and 100× fields. Then a 400× field was used to count microvessels in each of these areas. Single endothelial cells or clusters of endothelial cells with or without lumen were considered to be individual vessels. […] All slides were examined blindly with no prior knowledge of the treatment status.
# [4] = Pharmacokinetic evaluation of QC-56 in mouse brain; assay type: in vivo; conditions: brain tissue, i.v. tail vein injection
# Text: Regular male CD1 mice, 6 weeks old, were obtained from Charles River Laboratories, St. Zotique, PQ, Canada. The mice weighed 22-28 g. The experiments were approved by the Animal Care Committee, McGill University, Montreal, Quebec. The animals were housed in individual cages and were fed standard rodent chow and water ad libitum. […] In this case, mice were anesthetized using isoflurane-based system (DISPOMED, MODUFLEX COMPACT NRB, 3975-0800-000). […] Serum was collected after the samples were centrifuged 2200×, 4° C. for 20 minutes and stored at −80° C. until analysis. For the brain tissue collection, skin of mice was removed and brain was carefully dissected out from the skull, transferred into a Petri dish, briefly washed with ice-cold phosphate-buffered saline (PBS), and immediately stored at −80° C. until further analysis.
# The assay of QC-56 in mouse brain samples was carried out using a qualified LC/MS/MS assay method.
# [5] = tested on: SKMEL-V+ cells; assay: Cell proliferation / survival, MTT assay, SKMEL-V+ cells; assay type: cell-based, human; conditions: 6.25 μM to 100 μM, 96 hours
# Method: Exponentially growing SKMEL-V+ cells (1×10^3) were seeded in 96-well plates in complete medium. […] Cell survival was evaluated 96 hours later using the MTT metabolic assay (Benlimame N, He Q, Jie S, et al. FAK signaling is critical for ErbB-2/ErbB-3 receptor cooperation for oncogenic transformation and invasion. J Cell Biol 2005; 171: 505-16).
# [6] = Pharmacokinetic evaluation of QC-199 in mouse plasma, IV infusion; assay type: in vivo
# Method: Regular male CD1 mice, 6 weeks old, were obtained from Charles River Laboratories, St. Zotique, PQ, Canada. The mice weighed 22-28 g. The experiments were approved by the Animal Care Committee, McGill University, Montreal, Quebec. The animals were housed in individual cages and were fed standard rodent chow and water ad libitum. Mice weights were measured with a digital balance accurate to 0.05 g and then received QC-199 at the indicated doses either orally, or via i.p. injections or following i.v. slow infusion. In the case of i.v. injection or i.v. infusion, mice were anesthetized using isoflurane-based system (DISPOMED, MODUFLEX COMPACT NRB, 3975-0800-000). For the infusion, a mini pump (NE-1800, New Era Pump Systems, Inc.) was used to infuse the compound via the tail vein during a 2 h period. In one study, blood and brain tissue samples were collected at various time points after administration of QC-199 using EDTA tubing (Das Original S-Monovette EDTA KE/1.2 ml lot.9094102 and Needle for S-Monovette 22G lot. 8073401) via cardiac puncture and immediately stored at 4° C. Serum was collected after the samples were centrifuged 2200×, 4° C. for 20 minutes and stored at −80° C. until analysis. For the brain tissue collection, skin of mice was removed and brain was carefully dissected out from the skull, transferred into a Petri dish, briefly washed with ice-cold phosphate-buffered saline (PBS), and immediately stored at −80° C. until further analysis.
# The assay of QC-199 in mouse plasma and brain samples was carried out using qualified LC/MS/MS assay methods.
# [7] = male, CD-1, mouse, in vivo, IV infusion
smiles,measurement,setting,value
"Brc1ccc(CCC2(Cn3ccnc3)OCCO2)cc1.Cl [QC-56, 1-((2-(2-(4-Bromophenyl)ethyl)-1,3-dioxolan-2-yl)methyl)-1H-imidazole hydrochloride]",effect of hHO-1 transfection on 3H-thymidine incorporation,[1]; hHO-1-transfected human pancreatic tumor cells,significantly attenuated
same,3H-thymidine incorporation vs untreated cells,"[1]; non-transfected human pancreatic tumor cells, hydrochloride",significantly attenuated; also recorded: marked reduction
same,inhibition of tumor growth compared to vehicle alone,[2],approximately 42%
same,tumor size on the day of sacrifice,[2],1.03±0.16 cm^3
same,"tumor vascularization (vessel count, size, CD31)",[3],significant reduction in the density of blood vessels; also recorded: significant reduction in vascularization; also recorded: significant decrease in the size and number of blood vessels
same,time of maximal brain concentration,[4],1 min
same,AUC0→3 hrs,[4]; male CD-1 mice,60.3 µg·h/g
same,AUC0→inf,[4]; male CD-1 mice,158 µg·h/g
same,T1/2z,[4]; male CD-1 mice,4.30 h
same,concentration at 180 min,"[4]; male, CD-1, mouse, iv, read-out: brain concentration at 180 min post-dose",15800 ± 800 ng/g
same,Cmax,"[4]; mouse, iv, male CD-1 mice",50200 ± 3200 ng/g
same,% cell survival,[5],Dose dependent decrease in cell survival
same,tolerability,"50 mg/kg, multiple administrations",well tolerated
same,toxicity in combination studies,"QC-56 60 mg/kg i.p. 4 cycles, chemotherapy drugs i.p.",No apparent toxicity
same,tolerability,"multiple doses up to 100 mg/kg (intraperitoneal, intravenous), hydrochloride",well tolerated with no apparent signs of toxicity; also recorded: well tolerated
same,tolerability,"repeated doses of 30 and 60 mg/kg i.p., SCID mice, hydrochloride",well tolerated at repeated doses of 30 and 60 mg/kg with minor changes in body weights with no apparent toxicity; also recorded: well tolerated
same,toxic single dose,"single intraperitoneal dose, SCID mice",> 100 mg/kg
"Brc1ccc(CCCCn2ccnc2)cc1.Cl [QC-199, 1-[4-(4-bromophenyl)butyl]-1H-imidazole hydrochloride]",AUC_%Extrap_obs,[6]; IV infusion,37%
same,AUC(0-inf),[6]; [7],224 µg·h/mL
same,Tmax,[6]; [7],3 h
same,half-life,"[6]; male, CD-1, mouse, in vivo, IV infusion, from Lambda z, read-out: T½ (converted)",18 h
same,AUC,"[6]; male, CD-1, mouse, in vivo, IV infusion, read-out: AUCall (0-24 h)",141 µg·h/mL
same,Cmax,"[6]; mouse, 90 min IV infusion, male CD-1 mice",8000 ng/mL
same,% cell survival,[5],Dose dependent decrease in cell survival

# — patent US20140155445A1, “Compounds and Methods for Treating Cancer and Diseases of the Central Nervous System” (Osta Biotechnologies Inc., priority 2007, published 2014)
